This is an account of results in patent US4298734A, “Diazaheterocyclopurines and triazolopyrimidines” (Mead Johnson & Company, priority 1979, dated 1981).

Each structure is given as a SMILES string.

Data set [1] relates to passive cutaneous anaphylaxis reaction (PCA) in the rat. Nature of the data set: Passive cutaneous anaphylaxis reaction (PCA) in the rat. The note with it: oral. The data set is classed as in vivo. The procedure:
Antiallergy activity in terms of ability to inhibit the immediate hypersensitivity reaction was measured by means of the passive cutaneous anaphylaxis reaction (PCA) in the rat (Table XI, column 7). The animals were passively sensitized by the intradermal injection of rat reagenic antiserum at various locations on the shaved back skin and 48 hours later the test drug was administered. This was followed by challenge at a predetermined interval, usually 15 minutes, by intravenous injection of egg albumin and Evans' blue dye. The dermal reaction at the sensitized site was evaluated and scored by measuring the diameter of the spot generated at the sensitized intradermal injection site. The values reported in the table are either ED50 values for the test compound in terms of mg./kg. of body weight administered orally, or percent inhibition of the dose specified in parentheses.

In data set [2] the test system is methacholine-induced bronchospasm in the rat. Kind of data set: Methacholine-induced bronchospasm (pulmonary ventilation pressure) in anesthetized rat. The data set is classed as in vivo. The conditions noted are these: intraduodenal, 50% inhibition of bronchospasm. An excerpt:
Brochodilator activity in vivo (Table XI, column 6) was estimated by determining the dose of test compound required to inhibit methacholine-induced brochospasm in the rat. […] For this test, pulmonary ventilation pressure (PVP) was the parameter measured using anesthetized animals.

The nature of data set [3]: Maximum non-toxic dose in mice. The conditions noted are these: mouse, in vivo, po; per os in mice. An excerpt:
Compounds of Formula I and Formula II are useful as bronchodilators, antiallergy agents in the inhibition of the immediate hypersensitivity reaction, as vasodilators, and as inhibitors of the enzyme phosphodiesterase. The invention includes processes for the treatment of mammals requiring bronchodilation, vasodilation, or having allergy with a non-toxic bronchodilator effective, vasodilator effective, or immediate hypersensitivity reaction inhibiting dose of one of these compounds. The compounds may be administered orally, parenterally, topically by inhalation, or rectally. Effective doses range from about 0.03 mg./kg. of body weight up to the maximum non-toxic dose which can be administered without undue side effects. Maximum non-toxic doses can be determined by standard pharmacologic techniques using mice. The value for the substance of Procedure 3 or 4, a preferred compound for anti-asthma use, is about 250 mg./kg. of body weight per os in mice.

Data set [4] concerns rats actively sensitized with egg albumin and B. pertussis vaccine. Kind of data set: Allergic bronchospasm in rats actively sensitized with egg albumin. The data set is classed as in vivo. The note with it: Bordetella pertussis; rat, oral, egg albumin challenge, PVP. The method, then:
Antiallergy/bronchodilator studies (Table XI, column 8) were also conducted using rats which were actively sensitized with egg albumin and B. pertussis vaccine as for preparation of the reagenic antisera in the PCA test. Fifteen days following sensitization, the animals were prepared for measurement of PVP as for the methacholine-induced bronchospasm test, and changes in PVP in response to a standardized challenge of egg albumin following treatment with test drug were measured. The values reported in the table are ED50 values in terms of mg./kg. of body weight for the test compound administered orally.

Data set [5] in a line: Anti-allergy and bronchodilator action compared with aminophylline.

The term ED50 denotes the midpoint of the dose-response relation. Regarding `O=C1c2[nH]cnc2N(Cc2ccc(Cl)cc2)C2=NCCN12` [Procedure 3], the median effective dose (ED50) in data set [1] was 33.7 mg/kg; in data set [2], 5.2 mg/kg; in data set [4] it was 2.9 mg/kg. Further, the MTD in data set [3] was approximately 250 mg/kg.

`CC1(C)CN2C(=O)c3nc[nH]c3N(Cc3ccc(Cl)cc3)C2=N1` [Procedure 104]: the “anti-allergy and bronchodilator action relative to aminophylline” value in data set [5] was “more potent than aminophylline in anti-allergy and bronchodilator action”. Moreover, the ED50 is 42.8 mg/kg in data set [1], 6.3 mg/kg in data set [2] and 3 mg/kg in data set [4].
